Data: US5019576A, “2-substituted N,N'-ditrimethoxybenzoyl piperazines and therapeutic compositions containing them” (Societe de Conseils de Recherches et d'Applications …, priority 1989, dated 1991)

Experiments:
[1] = system: platelet aggregation induced by 2.5 nm of PAF; test: Inhibition of PAF-induced platelet aggregation on platelet rich plasma (Born method); format: cell-based, New Zealand rabbits; details: Oryctolagus cuniculus; rabbit platelet rich plasma, 2.5 nm PAF
Protocol: 1. --Inhibition of the platelets aggregation on New Zealand Rabbits
The experimentation was conducted on platelets with plasma of New Zealand rabbits.
Blood samples were taken from auricular artery and placed in a citrate buffer (3.8%; pH 7.4); blood was further centrifugated for 15 mn at 1200 rpm.
The tested sample was prepared in DMSO, then poured on platelets rich plasma for 1 mn, then a dose of 2.5 nm of PAF was added.
The determination is made on a Cronolog Coultronics apparatus which determines the transmission percentage corresponding to the maximum height of the peak before the desaggregation.
The percentage of variation of the inhibition with respect to the transmission percentage is calculated (control: pure DMSO).
This method was described in detail in LABORATORY INVESTIGATIONS, Vol. 41, No. 3, p. 275, 1979, JEAN-PIERRE CAZENAVE, Dr. MED., JACQUES BENVENISTE, DR. MED., AND J. FRASER MUSTARD, M. D., "Aggregation of rabbits platelets by platelet-activating factor is independent of the release reaction and the arachidonate pathway and inhibited by membrane-active drugs".

PAF receptors = biological target: T1, PAF receptors (Oryctolagus cuniculus, UniProt G1TEI7); test: Binding studies on a rabbit platelet homogenate (3[H]-PAF)
T1 construct: from tissue; host or cells: rabbit platelet homogenate
Excerpt: This activity was evidenced by binding studies on a rabbit platelet homogenate. In this preparation indeed, those derivatives inhibit the specific bond of ^3 [H]--PAF, whereas they are without significative effect on the binding of the appropriate ligands on tissue homogenates rich in benzodiazepinic (central and peripheral), histaminergic (H1 and H2) and adrenergic (α1, α2, β2, β3) receptors, to angiotensine II or to ANF. Their affinity is therefore characteristic of PAF receptors.

T1 sequence (G1TEI7 1-342): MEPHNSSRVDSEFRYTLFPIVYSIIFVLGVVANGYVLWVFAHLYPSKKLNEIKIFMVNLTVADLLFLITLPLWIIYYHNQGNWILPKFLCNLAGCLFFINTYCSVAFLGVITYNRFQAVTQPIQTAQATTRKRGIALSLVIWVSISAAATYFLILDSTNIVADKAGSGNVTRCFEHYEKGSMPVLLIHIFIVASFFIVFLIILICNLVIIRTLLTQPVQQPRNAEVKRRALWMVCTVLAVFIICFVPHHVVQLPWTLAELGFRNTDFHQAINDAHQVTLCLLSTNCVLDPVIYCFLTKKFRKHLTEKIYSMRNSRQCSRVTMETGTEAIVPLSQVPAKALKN

| SMILES | IC50 [1] [nM] | IC50 (PAF receptors) [nM] |
| --- | --- | --- |
| CCCCCCCCC1CN(C(=O)c2cc(OC)c(OC)c(OC)c2)CCN1C(=O)c1cc(OC)c(OC)c(OC)c1 (centres unmarked) [Example 1, N,N'-bis-(3',4',5'-trimethoxybenzoyl)-2-n-octyl piperazine] | 120 | 62 |
| COc1cc(C(=O)N2CCN(C(=O)c3cc(OC)c(OC)c(OC)c3)C(CCC(C)(C)C)C2)cc(OC)c1OC (centres unmarked) [Example 2, N,N'-bis-(3',4',5'-trimethoxybenzoyl) 2-(3",3"-dimethyl) -butyl piperazine] | 710 | 250 |
| COc1cc(C(=O)N2CCN(C(=O)c3cc(OC)c(OC)c(OC)c3)C(C)C2)cc(OC)c1OC (centres unmarked) [Example 3, N,N'-bis-(3',4',5'-trimethoxybenzoyl) 2-methyl piperazine] | 560 | 670 |
| CCCCCC1CN(C(=O)c2cc(OC)c(OC)c(OC)c2)CCN1C(=O)c1cc(OC)c(OC)c(OC)c1 (centres unmarked) [Example 4, N,N'-bis-(3',4',5'-trimethoxybenzoyl) 2-n-pentyl piperazine] | 190 | 32 |
| CCCCCCCCCCCCCCCC1CN(C(=O)c2cc(OC)c(OC)c(OC)c2)CCN1C(=O)c1cc(OC)c(OC)c(OC)c1 (centres unmarked) [Example 5, N,N'-bis-(3',4',5'-trimethoxybenzoyl) 2-n-pentadecyl piperazine] | 5800 | 6300 |
| CCCCCCCCCCCCCCCCCCCC1CN(C(=O)c2cc(OC)c(OC)c(OC)c2)CCN1C(=O)c1cc(OC)c(OC)c(OC)c1 (centres unmarked) [Example 6, N,N'-bis-(3',4',5'-trimethoxybenzoyl) 2-n-nonadecyl piperazine] | 2400 | 4700 |
| COc1cc(C(=O)N2CCN(C(=O)c3cc(OC)c(OC)c(OC)c3)C(CCC3CCCCC3)C2)cc(OC)c1OC (centres unmarked) [Example 7, N,N'-bis-(3',4',5'-trimethoxybenzoyl)-2-n-(cyclohexylethyl) piperazine] | 430 | 740 |
| COc1cc(CCC2CN(C(=O)c3cc(OC)c(OC)c(OC)c3)CCN2C(=O)c2cc(OC)c(OC)c(OC)c2)cc(OC)c1OC (centres unmarked) [Example 8, N,N'-bis-(3',4',5'-trimethoxybenzoyl)-2-n-(3,4,5-(trimethoxy)phenethyl) piperazine] | 71 | 38 |
| COc1cc(C(=O)N2CCN(C(=O)c3cc(OC)c(OC)c(OC)c3)C(Cc3ccccc3)C2)cc(OC)c1OC (centres unmarked) [Example 9, N,N'-bis-(3',4',5'-trimethoxybenzoyl)-2-n-(benzyl) piperazine] | 410 | 730 |
| COc1cc(C(=O)N2CCN(C(=O)c3cc(OC)c(OC)c(OC)c3)C(CCc3ccccc3)C2)cc(OC)c1OC (centres unmarked) [Example 10, N,N'-bis-(3',4',5'-trimethoxybenzoyl)-2-n-(phenethyl) piperazine] | 5400 | 4100 |
| COc1cc(C(=O)N2CCN(C(=O)c3cc(OC)c(OC)c(OC)c3)C(CCCc3ccccc3)C2)cc(OC)c1OC (centres unmarked) [Example 11, N,N'-bis-(3',4',5'-trimethoxybenzoyl)-2-n-(phenyl-n-propyl) piperazine] | 11 | 31 |
| COc1ccc(CCC2CN(C(=O)c3cc(OC)c(OC)c(OC)c3)CCN2C(=O)c2cc(OC)c(OC)c(OC)c2)cc1 (centres unmarked) [Example 12, N,N'-bis-(3',4',5'-trimethoxybenzoyl)-2-n-(p-(methoxy)phenethyl) piperazine] | 62 | 60 |
| COc1cc(C(=O)N2CCN(C(=O)c3cc(OC)c(OC)c(OC)c3)C(CCCc3ccc(C)cc3)C2)cc(OC)c1OC (centres unmarked) [Example 13, N,N'-bis-(3',4',5'-trimethoxybenzoyl)-2-n-(p-(methyl)phenylpropyl) piperazine] | 350 | 140 |
| COc1cc(C(=O)N2CCN(C(=O)c3cc(OC)c(OC)c(OC)c3)C(CCc3ccc(Cl)cc3)C2)cc(OC)c1OC (centres unmarked) [Example 14, N,N'-bis-(3',4',5'-trimethoxybenzoyl)-2-n-(p-(chloro)phenethyl) piperazine] | 170 | 450 |
| COc1cc(C(=O)N2CCN(C(=O)c3cc(OC)c(OC)c(OC)c3)C(CCc3cccc(Cl)c3Cl)C2)cc(OC)c1OC (centres unmarked) [Example 15, N,N'-bis-(3',4',5,-trimethoxybenzoyl)-2-n-(2,3-(dichloro)phenethyl) piperazine] | 370 | 680 |
| C=CCc1ccc(CCC2CN(C(=O)c3cc(OC)c(OC)c(OC)c3)CCN2C(=O)c2cc(OC)c(OC)c(OC)c2)cc1 (centres unmarked) [Example 16, N,N'-bis-(3',4',5'-trimethoxybenzoyl)-2-n-(p-(allyl)phenethyl) piperazine] | 290 | 530 |
